system: C. acnes strain K8; assay: Evaluation of the minimum inhibitory concentration (MIC) of cosmetic excipients; type: cell-based, Cutibacterium acnes; conditions: % w/vol, incubated anaerobically 3 days at 37° C., scored for growth or complete growth inhibition
Description: (§1) In microbiology, the MIC is the lowest concentration of a chemical which prevents visible growth of bacterium. The resulted MIC value depends both on the microorganism and the test compound. The MIC is determined by preparing concentrations series of the test compound in vitro, incubating the solutions with the separate batches of cultured bacteria, and measuring the results using agar dilution or broth microdilution. For the experiments with C. acnes strains C3 and K8, media comprising yeast extract soy peptone and dextrose were used. The MIC is determined by turbidity.
(§2) A total of 125 cosmetic excipients were tested for their compatibility with C. acnes strains C3 and K8. Hydrophilic compounds were tested in a 96-well plate liquid broth format, poorly soluble compounds were pre-dissolved in DMSO before dilution in liquid broth and hydrophobic or solid compounds were tested in an agar well diffusion test assay. The different dilutions of the test excipients in media were prepared in Falcon tubes and then distributed in a deep well plate using a multistepper. Each well received 1.2 ml and was subsequently inoculated with 120 μl of C. acnes bacteria suspension (strain C3 and K8). From the deep well plate 200 μl were transferred in each well of a clear 96 well replicate plate. The leftover was discarded. The plates were then incubated anaerobically for 3 days at 37° C. Following incubation, the test plates were visually examined and wells were scored for growth or complete growth inhibition to define the minimum inhibitory concentration.
(§3) These excipients are listed in the below table with their compatibility values for C. acnes strains C3 and K8. The compatibility values represent the MIC value of the listed ingredients with the tested C. acnes strains. At this concentration [% w/vol] the tested compound starts interfering with the growth of the tested strains. The compounds can be used in formulations at concentrations below this concentration.

Compound | COMPATABILITY VALUE K8 [%] (MIC)
CCCCCCC(O)CO (stereo not drawn) [caprylyl glycol] | 0.18%
O=C(O)CC(O)(CC(=O)O)C(=O)O [citric acid] | 0.08%
CC(CO)CO [methylpropanediol] | 4.00%
CC(=O)Oc1c(C)c(C)c2c(c1C)CCC(C)(CCC[C@H](C)CCC[C@H](C)CCCC(C)C)O2 (stereo partly drawn) [tocopheryl acetate] | 1.00%
ethylhexyl cocoate | 10.00%
peg-40 hydrogenated castor oil | 1.00%
tocopherol | 1.50%

system: C. acnes strain C3; assay: as above; type: cell-based, Cutibacterium acnes; conditions: % w/vol, incubated anaerobically 3 days at 37° C., scored for growth or complete growth inhibition
Description: as §1, §2, §3

Compound | COMPATABILITY VALUE C3 [%] (MIC)
CCCCCCC(O)CO (stereo not drawn) [caprylyl glycol] | 0.18%
O=C(O)CC(O)(CC(=O)O)C(=O)O [citric acid] | 0.33%
CC(CO)CO [methylpropanediol] | 4.00%
CC(=O)Oc1c(C)c(C)c2c(c1C)CCC(C)(CCC[C@H](C)CCC[C@H](C)CCCC(C)C)O2 (stereo partly drawn) [tocopheryl acetate] | 1.00%
ethylhexyl cocoate | 10.00%
peg-40 hydrogenated castor oil | 1.00%
tocopherol | 1.50%

system: freeze-dried C. acnes strains K8 and C3; assay: Reactivation assay of freeze dried bacteria in formulations (CFU count); type: cell-based, Cutibacterium acnes; conditions: statement in the description
Text: For this purpose, a freeze-dried powder of C. acnes strains K8 and C3 was produced and mixed with other ingredients as indicated below. Ingredients are listed in % (w/w). The formulations were provided in two pre-mixed compositions A and B that were finally mixed with each other. The following formulations were made: […]
The formulations are depicted in the form of a table in FIG. 1. For formulations 1-11, the CFU target value was 1×10^7. For formulations 12-15, the CFU target value was 1×10^6. A CFU count was performed directly after mixing the formulation to assess the effect of the prototype formulation on the revival and subsequent stability rate of the bacteria. Briefly, the formula component A (lyophilisate/oil suspension) and the formula component B (hydrogel/aqueous solution) are mixed together and well vortexed. Directly after mixing an aliquot is removed and transferred to 0.9% NaCl. Further dilutions are plated on COST agar plates and incubated anaerobically at 37° C. for 5 days.
Similar to the formulations tested in Example 2, another set of 11 prototype formulations was prepared with higher concentrations of the excipients of the invention. The formulations were tested as described in Example 2 for their impact on reactivation of freeze-dried C. acnes bacteria. As a control, a formulation containing the lyophilisate and low amounts of the excipients was prepared. […]

Compound | interference with viability and replication capability of the lyophilized or spray-dried bacteria
peg-40 hydrogenated castor oil | does not interfere
